One block for each compound: values may come before it.
Columns and labels:
MDA levels = conditions: CKD patients treated with iron gluconate; cited from earlier work
aortic ring = conditions: cited from earlier work; for iron-induced endothelial dysfunction of the blood vessel: rats, iron co-administered with the antioxidant
rat aortic rings = assay: animal or person; assay type: in vivo, Sprague-Dawley rats; conditions: for relaxation response to acetylcholine at 100 nM in iron treated rats given antioxidant: 100 nM acetylcholine, iron sucrose plus Tempol (drinking water), N-acetylcysteine 140 mg/kg iv or Vitamin C 100 mg/kg iv, iron alone 22±10%; for Maximum relaxation of aortic ring in iron-treated animals given antioxidant: iron sucrose 14 mg/kg iv plus Tempol 2 mmol/L in drinking water 72 h or N-acetylcysteine 140 mg/kg iv, iron alone 46±14%
Description: Forty seven normal Sprague-Dawley rats (280-350 g) were included in this study. Twenty three rats were injected in the tail vein with 14 mg/kg iron sucrose (Venofer, American Regent) twenty four hours before dissection of the aortic ring.
Twenty four hours after iron sucrose injection, the rats were sacrificed by interperitoneal injection of 100 mg/kg Inactin. Blood was collected for measurement of markers of oxidative stress and the thoracic aorta isolated and placed in ice cold PSS.
The surrounding tissue of aorta was carefully dissected away and care taken to not damage the endothelium. The aorta was then cut into a 4-5 mm width transverse ring and then mounted isometrically in 10 mL organ bath containing oxygenated PSS warmed to 37° C. and gassed with air.
The aortic ring was suspended under a resting force of […] and allowed to equilibrate for 30 minutes before administration of any agents. The bath was perfused with fresh PSS and was washed with PSS after each test response to the administered agents. The aortic ring was preconstricted with 10 nM phenylephrine prior to the addition of acetylcholine, and allowed to equilibrate for another 30 minutes.
Isometric contraction was measured on an oscillographic recorder. Subsequently acetylcholine was added to the bath in increasing doses of 1 nM to 100 μM and the relaxation response to each dose was recorded as the percentage of the drop in the starting resting force. […] P<0.05 was considered significant.

[1] = light stability of Tempol solutions; assay type: physicochemical; conditions: solutions left in sunlight
oxidative stress markers = conditions: cited from earlier work

Compound: CC(=O)N[C@@H](CS)C(=O)O [N-acetylcysteine]
MDA level decrease after iron gluconate (MDA levels): not observed
iron-induced endothelial dysfunction of the blood vessel (aortic ring): completely attenuated
relaxation response to acetylcholine at 100 nM in iron treated rats given antioxidant (rat aortic rings): 42±13%
Maximum relaxation of aortic ring in iron-treated animals given antioxidant (rat aortic rings): 69.9±13%

Compound: CC1(C)CC(O)CC(C)(C)N1[O] [Tempol, 4-hydroxy-2,2,6,6-tetramethyl-1-piperidine-1-oxyl]
iron-induced endothelial dysfunction of the blood vessel (aortic ring): completely attenuated
stability of solutions in sunlight [1]: discolor when left in sunlight
relaxation response to acetylcholine at 100 nM in iron treated rats given antioxidant (rat aortic rings): 48±17%
Maximum relaxation of aortic ring in iron-treated animals given antioxidant (rat aortic rings): 75±15%

Compound: O=C1O[C@H]([C@@H](O)CO)C(O)=C1O [Vitamin C]
reducing iron-induced oxidative stress markers (oxidative stress markers; dialysis population): not been shown to be effective
effect when co-administered with iron (oxidative stress markers; subjects with physiologic Vitamin C levels): pro-oxidant effect
relaxation response to acetylcholine at 100 nM in iron treated rats given antioxidant (rat aortic rings): 41±8%
relaxation response to 100 nM through 100 μM of acetylcholine, addition to iron treatment (rat aortic rings; Vitamin C 100 mg/kg iv with iron sucrose, only statistically significant at 100 nM acetylcholine (FIG. 3)): increased the relaxation response

IC50 (rat aortic rings; Rattus norvegicus, iv, aortic rings preconstricted with 10 nM phenylephrine, all treatment groups, read-out: IC50 for all dose response curves (acetylcholine relaxation of aortic ring)): 100 nM
Compound: CC(=O)OCC[N+](C)(C)C [acetylcholine]

relaxation response of aortic ring to increasing doses of acetylcholine (rat aortic rings; rat, in vivo): significantly reduced
relaxation response to acetylcholine at 100 nM (rat aortic rings; rat, in vivo): 22±10%
Maximum relaxation of aortic ring (percentage of the drop in the starting resting force) (rat aortic rings; rat, in vivo, iv, 14 mg/kg): 46±14%
Compound: iron sucrose
reduction in aortic ring vasodilation in response to acetylcholine (aortic ring; rat, in vivo, iv): 40%

From patent publication US20100081689A1, “Methods and Compositions for the Treatment of Iron Toxicity” (Georgetown University, priority 2008, published 2010)
